Tests used:
[1] = system: Calf thymus DNA; experiment: Apparent binding constant to calf thymus DNA (CT-DNA); type: nucleic-acid assay; conditions: Bos taurus
[2] = system: HL-60; experiment: In vitro antitumor activity against humanHL-60 tumor cell line; type: functional, cell-based; conditions: Homo sapiens
[3] = system: MDA-MB-435; experiment: In vitro antitumor activity against human MDA-MB-435 tumor cell line; type: functional, cell-based
[4] = system: BGC-823; experiment: In vitro antitumor activity against humanBGC-823 tumor cell line; type: functional, cell-based; conditions: Homo sapiens
[5] = In vitro antitumor activity against human PC-3MIE8 tumor cell line; type: functional
[6] = system: Nucleic Acid; experiment: Thermal denaturation alteration for calf thymus DNA (CT-DNA) binding to the compound was determined; type: functional; conditions: Bos taurus

| SMILES | Kb [1] | IC50 [2] | IC50 [3] | IC50 [4] | IC50 [5] | ΔTm [6] |
| --- | --- | --- | --- | --- | --- | --- |
| Cc1c(N)nc([C@H](CC(N)=O)NC[C@H](N)C(N)=O)nc1C(=O)N[C@H](C(=O)N[C@H](C)[C@@H](O)[C@H](C)C(=O)N[C@H](C(=O)NCCc1nc(-c2nc(C(=O)NCCCNCCCCN)cs2)cs1)[C@@H](C)O)[C@@H](O[C@@H]1O[C@@H](CO)[C@@H](O)[C@@H](O)[C@@H]1O[C@H]1O[C@H](CO)[C@@H](O)[C@H](OC(N)=O)[C@@H]1O)c1c[nH]cn1 | 457000 | 0.25 µM | 1.64 µM | 1.25 µM | 1.48 µM | 2.9 °C |
| Cc1c(N)nc([C@H](CC(N)=O)NC[C@H](N)C(N)=O)nc1C(=O)N[C@H](C(=O)N[C@H](C)[C@@H](O)[C@H](C)C(=O)N[C@H](C(=O)NCCc1nc(-c2nc(C(=O)NCCCNCCCCNC(=O)[C@@H](N)C(C)C)cs2)cs1)[C@@H](C)O)[C@@H](O[C@@H]1O[C@@H](CO)[C@@H](O)[C@H](O)[C@@H]1O[C@H]1O[C@H](CO)[C@@H](O)[C@H](OC(N)=O)[C@@H]1O)c1c[nH]cn1 | 325000 | 0.66 µM | 0.13 µM | 1.39 µM | 1.83 µM | 1.9 °C |
| Cc1c(N)nc([C@H](CC(N)=O)NC[C@H](N)C(N)=O)nc1C(=O)N[C@H](C(=O)N[C@H](C)[C@@H](O)[C@H](C)C(=O)N[C@H](C(=O)NCCc1nc(-c2nc(C(=O)NCCCNCCCCNC(=O)[C@H](CC(C)C)NC(=O)[C@H](N)C(C)C)cs2)cs1)[C@@H](C)O)[C@@H](O[C@@H]1O[C@@H](CO)[C@@H](O)[C@H](O)[C@@H]1O[C@H]1O[C@H](CO)[C@@H](O)[C@H](OC(N)=O)[C@@H]1O)c1c[nH]cn1 | 260000 | 0.27 µM | 0.09 µM | 0.93 µM | 1.18 µM | 0.5 °C |
| Cc1c(N)nc([C@H](CC(N)=O)NC[C@H](N)C(N)=O)nc1C(=O)N[C@H](C(=O)N[C@H](C)[C@@H](O)[C@H](C)C(=O)N[C@H](C(=O)NCCc1nc(-c2nc(C(=O)NCCCNCCCCNC(=O)[C@H](N)C(C)C)cs2)cs1)[C@@H](C)O)[C@@H](O[C@@H]1O[C@@H](CO)[C@@H](O)[C@H](O)[C@@H]1O[C@H]1O[C@H](CO)[C@@H](O)[C@H](OC(N)=O)[C@@H]1O)c1c[nH]cn1 | 249000 | 0.31 µM | 0.13 µM | 0.8 µM | 0.8 µM | 1.1 °C |
| Cc1c(N)nc([C@H](CC(N)=O)NC[C@H](N)C(N)=O)nc1C(=O)N[C@H](C(=O)N[C@H](C)[C@@H](O)[C@H](C)C(=O)N[C@H](C(=O)NCCc1nc(-c2nc(C(=O)NCCCNCCCCNC(=O)[C@H](N)CC(C)C)cs2)cs1)[C@@H](C)O)[C@@H](O[C@@H]1O[C@@H](CO)[C@@H](O)[C@H](O)[C@@H]1O[C@H]1O[C@H](CO)[C@@H](O)[C@H](OC(N)=O)[C@@H]1O)c1c[nH]cn1 | 283000 | 0.37 µM | 0.17 µM | 0.73 µM | 1.27 µM | 1.5 °C |
| Cc1c(N)nc([C@H](CC(N)=O)NC[C@H](N)C(N)=O)nc1C(=O)N[C@H](C(=O)N[C@H](C)[C@@H](O)[C@H](C)C(=O)N[C@H](C(=O)NCCc1nc(-c2nc(C(=O)NCCCNCCCCNC(=O)[C@H](CC(C)C)NC(=O)[C@@H](N)C(C)C)cs2)cs1)[C@@H](C)O)[C@@H](O[C@@H]1O[C@@H](CO)[C@@H](O)[C@@H](O)[C@@H]1O[C@H]1O[C@H](CO)[C@@H](O)[C@H](OC(N)=O)[C@@H]1O)c1c[nH]cn1 | 423000 | 0.63 µM | 0.32 µM | 0.87 µM | 1.32 µM | 1.8 °C |
| Cc1c(N)nc([C@H](CC(N)=O)NC[C@H](N)C(N)=O)nc1C(=O)N[C@H](C(=O)N[C@H](C)[C@@H](O)[C@H](C)C(=O)N[C@H](C(=O)NCCc1nc(-c2nc(C(=O)NCCCNCCCCNC(=O)[C@H](CCCCN)NC(=O)[C@@H](N)C(C)C)cs2)cs1)[C@@H](C)O)[C@@H](O[C@@H]1O[C@@H](CO)[C@@H](O)[C@H](O)[C@@H]1O[C@H]1O[C@H](CO)[C@@H](O)[C@H](OC(N)=O)[C@@H]1O)c1c[nH]cn1 | 463000 | 0.98 µM | 0.22 µM | 1.01 µM | 3.32 µM | 7 °C |
| Cc1c(N)nc([C@H](CC(N)=O)NC[C@H](N)C(N)=O)nc1C(=O)N[C@H](C(=O)N[C@H](C)[C@@H](O)[C@H](C)C(=O)N[C@H](C(=O)NCCc1nc(-c2nc(C(=O)NCCCNCCCCNC(=O)[C@H](N)CCCCN)cs2)cs1)[C@@H](C)O)[C@@H](O[C@@H]1O[C@@H](CO)[C@@H](O)[C@H](O)[C@@H]1O[C@H]1O[C@H](CO)[C@@H](O)[C@H](OC(N)=O)[C@@H]1O)c1c[nH]cn1 | 559000 | 0.51 µM | 0.1 µM | 0.92 µM | 1.08 µM | 8.4 °C |
| Cc1c(N)nc([C@H](CC(N)=O)NC[C@H](N)C(N)=O)nc1C(=O)N[C@H](C(=O)N[C@H](C)[C@@H](O)[C@H](C)C(=O)N[C@H](C(=O)NCCc1nc(-c2nc(C(=O)NCCCNCCCCNC(=O)[C@H](CCCCN)NC(=O)[C@H](N)C(C)C)cs2)cs1)[C@@H](C)O)[C@@H](O[C@@H]1O[C@@H](CO)[C@@H](O)[C@H](O)[C@@H]1O[C@H]1O[C@H](CO)[C@@H](O)[C@H](OC(N)=O)[C@@H]1O)c1c[nH]cn1 | 408000 | 0.74 µM | 0.1 µM | 1.17 µM | 1.91 µM | 5.9 °C |
| Cc1c(N)nc([C@H](CC(N)=O)NC[C@H](N)C(N)=O)nc1C(=O)N[C@H](C(=O)N[C@H](C)[C@@H](O)[C@H](C)C(=O)N[C@H](C(=O)NCCc1nc(-c2nc(C(=O)NCCCNCCCCNC(=O)[C@H](CCCCN)NC(=O)[C@@H](CC(C)C)NC(=O)[C@@H](N)C(C)C)cs2)cs1)[C@@H](C)O)[C@@H](O[C@@H]1O[C@@H](CO)[C@@H](O)[C@H](O)[C@@H]1O[C@H]1O[C@H](CO)[C@@H](O)[C@H](OC(N)=O)[C@@H]1O)c1c[nH]cn1 | 496000 | 0.07 µM | 0.07 µM | 0.6 µM | 1.14 µM | 4.7 °C |
